Literature values as cited in patent publication US20090005431A1, “SUBSTITUTED PYRROLIDINES” (AUSPEX PHARMACEUTICALS, INC., priority 2007, published 2009).

Experiments:
Conditions in all cases: human recombinant muscarinic receptor subtypes; cited from earlier work
[1] = system: M3 receptor compared to M1
[2] = system: M3 receptor compared to M5
[3] = system: M3 receptor compared to M2
[4] = system: M3 receptor compared to M4

NC(=O)C(c1ccccc1)(c1ccccc1)[C@@H]1CCN(CCc2ccc3c(c2)CCO3)C1 (stereo in doubt) [darifenacin, 2-{1-[2-(2,3-dihydro-benzofuran-5-yl)-ethyl]-pyrrolidin-3-yl}-2,2-diphenyl-acetamide]
greater affinity for M3 compared to M1 [1]: 9 fold
greater affinity for M3 compared to M5 [2]: 12 fold
greater affinity for M3 compared to M2 [3]: 59 fold
greater affinity for M3 compared to M4 [4]: 59 fold
